This is an account of results in paper PMC5736629, “Allosteric modulation of protein-protein interactions by individual lipid binding events” (Nature Communications, 2017).

Read-outs that look alike come from different tables or passages of the source.

For experiment [1], the target named is GlnK. The arrangement: method as in earlier work. The settings on record: 298K, absence of detergent, ref 2 (supplement), cited from earlier work.
Experiment [2] concerns the target T1, AmtB (Escherichia coli, UniProt P69681).
T1 construct: pelB signal peptide (N, cleaved yes); 10x His-tag (N, cleaved yes); made in house; host or cells: Escherichia coli C41(DE3), pET15b
The experiment in a line: Native MS lipid titration, lipid binding to AmtB (equilibrium-coupled binding model). The settings on record: 50 µM ADP, 298 K. The method, then:
(§1) A stock of ADP was prepared by dissolving the ammonium salt form of ADP in water followed by adjusting the pH with ammonium hydroxide to 7.0. Serial dilutions into MS buffer (200 mM ammonium acetate, 0.5% C8E4, and pH adjusted to 7.4 with ammonium hydroxide) supplemented with 5 mM BME was performed to prepare ADP at certain concentrations. Phospholipids were prepared as previously described. In brief, stock solutions of each phospholipid were resuspended in chloroform, aliqouted, and chloroform was removed by a steady stream on nitrogen gas. Lipid films were placed under vacuum overnight to prepare to resuspend in MS buffer supplemented with 5 mM 2-mercaptoethanol. Phospholipid concentration was determined by phosphorus analysis.

Experiment [3] has as its target T2, AmtB–GlnK complex (Escherichia coli, UniProt P69681).
T2 construct: pelB signal peptide (N, cleaved yes); 10x His-tag (N, cleaved yes); made in house; host or cells: AmtB: Escherichia coli C41(DE3), pET15b; stGlnK: Escherichia coli ArcticExpress (DE3) RIL, pET28b
The experiment in a line: Native MS lipid titration, lipid binding to AmtB–GlnK (equilibrium-coupled binding model). The settings on record: 50 µM ADP, 298 K. The method, then: as §1

In experiment [4] the target is T3, AmtB–GlnK interaction (Escherichia coli, UniProt P69681).
T3 construct: pelB signal peptide (N, cleaved yes); 10x His-tag (N, cleaved yes); made in house; host or cells: AmtB: Escherichia coli C41(DE3), pET15b; stGlnK: Escherichia coli ArcticExpress (DE3) RIL, pET28b
As to the kind of experiment: Native MS lipid titration, GlnK binding to apo or lipid-bound AmtB; coupling factors (allosteric modulation). The settings on record: for Kd: 50 µM ADP, 298 K. The method, then:
as §1

For experiment [5], the target named is T4, ammonium channel (AmtB) from Escherichia coli (Escherichia coli, UniProt P69681 23-428).
T4 construct: Ammonium channel AmtB, Escherichia coli, wild-type; Expressed as pelB signal peptide - 10x His - MBP - TEV site - AmtB from pET15b; tagless after TEV cleavage; also called ammonia channel; AmtB wild-type; source: E. coli C41(DE3), purified (membranes extracted with octyl glucoside, HisTrap, TEV cleavage, reverse HisTrap); for native MS co-purified with stGlnK (StrepTrap, Superdex 200 Increase); …
T4 sequence: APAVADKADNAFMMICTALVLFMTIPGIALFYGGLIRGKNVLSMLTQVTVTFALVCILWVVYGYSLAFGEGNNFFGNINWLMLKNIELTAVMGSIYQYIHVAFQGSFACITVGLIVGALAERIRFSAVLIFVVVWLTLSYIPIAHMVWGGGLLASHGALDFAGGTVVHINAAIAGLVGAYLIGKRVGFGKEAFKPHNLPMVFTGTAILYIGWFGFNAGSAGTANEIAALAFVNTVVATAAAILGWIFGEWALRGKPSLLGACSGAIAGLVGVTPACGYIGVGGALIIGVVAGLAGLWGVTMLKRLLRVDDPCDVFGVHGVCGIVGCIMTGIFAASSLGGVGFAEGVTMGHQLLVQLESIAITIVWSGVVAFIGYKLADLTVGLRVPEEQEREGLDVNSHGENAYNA
The experiment in a line: native MS; AmtB-GlnK at 2 uM titrated with POPA; 200 mM ammonium acetate pH 7.4, 0.5% C8E4, 50 uM ADP, 298 K; global fit of the equilibrium-coupled AmtB-GlnK-lipid binding model; apparent constants. To be noted: both partners purified.

The target in experiment [6] is T4, ammonium channel (AmtB) from …. The experiment in a line: native MS; AmtB-GlnK at 2 uM titrated with POPC; 200 mM ammonium acetate pH 7.4, 0.5% C8E4, 50 uM ADP, 298 K; global fit of the equilibrium-coupled AmtB-GlnK-lipid binding model; apparent constants. The settings on record: both partners purified.
For experiment [7] the target is unchanged. As to the kind of experiment: native MS; AmtB-GlnK at 2 uM titrated with POPE; 200 mM ammonium acetate pH 7.4, 0.5% C8E4, 50 uM ADP, 298 K; global fit of the equilibrium-coupled AmtB-GlnK-lipid binding model; apparent constants. To be noted: both partners purified.
Experiment [8] has the same target. The experiment in a line: native MS; AmtB-GlnK at 2 uM titrated with POPG; 200 mM ammonium acetate pH 7.4, 0.5% C8E4, 50 uM ADP, 298 K; global fit of the equilibrium-coupled AmtB-GlnK-lipid binding model; apparent constants. To be noted: both partners purified.
The target is the same in experiment [9]. As to the kind of experiment: native MS; AmtB-GlnK at 2 uM titrated with POPS; 200 mM ammonium acetate pH 7.4, 0.5% C8E4, 50 uM ADP, 298 K; global fit of the equilibrium-coupled AmtB-GlnK-lipid binding model; apparent constants. To be noted: both partners purified.
Experiment [10] shares this target. The experiment in a line: native MS; AmtB-GlnK at 2 uM titrated with DLPG (12:0); 200 mM ammonium acetate pH 7.4, 0.5% C8E4, 50 uM ADP; global fit of the equilibrium-coupled AmtB-GlnK-lipid binding model; apparent constants. The settings on record: both partners purified.
For experiment [11] the target is unchanged. As to the kind of experiment: native MS; AmtB-GlnK at 2 uM titrated with DMPG (14:0); 200 mM ammonium acetate pH 7.4, 0.5% C8E4, 50 uM ADP; global fit of the equilibrium-coupled AmtB-GlnK-lipid binding model; apparent constants. The settings on record: both partners purified.
For experiment [12] the target is unchanged. The experiment in a line: native MS; AmtB-GlnK at 2 uM titrated with DPPG (16:0); 200 mM ammonium acetate pH 7.4, 0.5% C8E4, 50 uM ADP; global fit of the equilibrium-coupled AmtB-GlnK-lipid binding model; apparent constants. The settings on record: both partners purified.
For experiment [13] the target is unchanged. The experiment in a line: native MS; AmtB-GlnK at 2 uM titrated with DOPE (cis, 18:1); 200 mM ammonium acetate pH 7.4, 0.5% C8E4, 50 uM ADP; global fit of the equilibrium-coupled AmtB-GlnK-lipid binding model; apparent constants. To be noted: both partners purified.
For experiment [14] the target is unchanged. As to the kind of experiment: native MS; AmtB-GlnK at 2 uM titrated with DOPE (trans, 18:1); 200 mM ammonium acetate pH 7.4, 0.5% C8E4, 50 uM ADP; global fit of the equilibrium-coupled AmtB-GlnK-lipid binding model; apparent constants. To be noted: both partners purified.
The target is the same in experiment [15]. The experiment in a line: native MS; AmtB-GlnK at 2 uM titrated with SOPE (18:0-18:1, cis); 200 mM ammonium acetate pH 7.4, 0.5% C8E4, 50 uM ADP; global fit of the equilibrium-coupled AmtB-GlnK-lipid binding model; apparent constants. The settings on record: both partners purified.
The target is the same in experiment [16]. As to the kind of experiment: native MS; AmtB-GlnK at 2 uM titrated with TOCDL (cardiolipin); 200 mM ammonium acetate pH 7.4, 0.5% C8E4, 50 uM ADP, 298 K; global fit of the equilibrium-coupled AmtB-GlnK-lipid binding model; apparent constants. The settings on record: both partners purified.
Experiment [17] deals with T5, ammonium channel (AmtB) from Escherichia coli, wild-type, tagless (E. coli, UniProt P69681 23-428).
T5 construct: AmtB, ammonium channel, Escherichia coli, wild-type; expressed behind a pelB secretion signal, 10x His-tag, MBP and a TEV site, all removed; also called ammonia channel; source: E. coli C41(DE3), extracted from membranes with octyl glucoside, purified (HisTrap, TEV cleavage, reverse HisTrap); not shown: 10x His-tag, N-terminal, cleaved
T5 sequence: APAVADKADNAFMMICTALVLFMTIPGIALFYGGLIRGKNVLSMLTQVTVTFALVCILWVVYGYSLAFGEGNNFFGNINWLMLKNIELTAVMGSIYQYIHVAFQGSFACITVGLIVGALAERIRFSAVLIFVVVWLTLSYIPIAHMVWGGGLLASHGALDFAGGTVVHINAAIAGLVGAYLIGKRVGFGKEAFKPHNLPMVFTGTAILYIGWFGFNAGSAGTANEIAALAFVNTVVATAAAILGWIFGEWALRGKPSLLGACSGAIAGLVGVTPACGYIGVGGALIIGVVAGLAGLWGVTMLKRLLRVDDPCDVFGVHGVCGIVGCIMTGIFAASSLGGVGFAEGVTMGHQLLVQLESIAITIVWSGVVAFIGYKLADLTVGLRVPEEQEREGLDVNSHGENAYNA
The experiment in a line: native MS; ADP titration series; at and above 100 uM ADP (asymptote); AmtB-GlnK 2 uM, 200 mM ammonium acetate pH 7.4, 0.5% C8E4. To be noted: both partners purified.

As for `Nc1ncnc2c1ncn2[C@@H]1O[C@H](COP(=O)(O)OP(=O)(O)O)[C@@H](O)[C@H]1O` [ADP, adenosine diphosphate], the Kd in experiment [1] (read-out: KD for GlnK binding the first ADP molecule) was 20000 nM; in [1] (read-out: KD for GlnK binding the second ADP molecule) it was 56000 nM; in experiment [1] (read-out: KD for GlnK binding the third ADP molecule), 100000 nM.

`CCCCCCCC/C=C\CCCCCCCC(=O)OC[C@H](COP(=O)(O)OCC(O)COP(=O)(O)OC[C@@H](COC(=O)CCCCCCC/C=C\CCCCCCCC)OC(=O)CCCCCCC/C=C\CCCCCCCC)OC(=O)CCCCCCC/C=C\CCCCCCCC` (stereo partly shown) [TOCDL, 1,1′,2,2′-tetraoleoyl-cardiolipin]: the Kd amounted to 19900 ± 1650 nM in experiment [2] (read-out: KD,AL1, first lipid binding to AmtB); 30200 ± 2050 nM in experiment [2] (read-out: KD,AL2, second lipid binding to AmtB); 33100 ± 6010 nM in experiment [2] (read-out: KD,AL3, third lipid binding to AmtB); 17000 ± 170 nM in experiment [3] (read-out: KD,AGL1, first lipid binding to AmtB–GlnK); 29300 ± 1420 nM in experiment [3] (read-out: KD,AGL2, second lipid binding to AmtB–GlnK); 29500 ± 1680 nM in experiment [3] (read-out: KD,AGL3, third lipid binding to AmtB–GlnK). Besides, the Kd came out at 517 ± 31.2 nM in experiment [4] (read-out: KD,AG, GlnK binding apo AmtB, from global fit of the titration with the named lipid); 443 ± 68.9 nM in experiment [4] (read-out: KD,AL2G, GlnK binding AmtB bound to 2 lipids); 414 ± 77.6 nM in experiment [4] (read-out: KD,AL3G, GlnK binding AmtB bound to 3 lipids); 450 ± 56.1 nM in experiment [4] (read-out: KD,ALG, GlnK binding AmtB bound to 1 lipid). The “Coupling factor a1” value in experiment [4] (first bound lipid) came out at 1.17 ± 0.09. Further, the “allosteric modulation of AmtB–GlnK (from coupling factors)” value in [4] (result in words) is on record as “neutral allosteric modulation”. Also, in experiment [4] (result in words), the “effect of lipid-binding events on K D,ALnG” value was “little effect on K D,ALnG”. Also, the “Coupling factor a2” value in experiment [4] (second bound lipid) came out at 1.03 ± 0.06. In addition, the “Coupling factor a3” value in experiment [4] (third bound lipid) came out at 1.11 ± 0.15.

B1: Strep-tag II-tagged GlnK (stGlnK), Y51F (natural protein, Escherichia coli)
chain: MKLVTVIIKPFKLEDVREALSSIGIQGLTVTEVKGFGRQKGHAELYRGAEFSVNFLPKVKIDVAIADDQLDEVIDIVSKAAYTGKIGDGKIFVAELQRVIRIRTGEADEAAL
notes: Nitrogen regulatory protein GlnK, Escherichia coli; Expressed from pET28b; Y51F prevents uridylylation by GlnD; source: E. coli ArcticExpress (DE3) RIL, purified (StrepTrap HP, Superdex 75)
As to B1, the Kd came to 517 nM in experiment [5]; 486 nM in experiment [6]; 504 nM in experiment [7]; 540 nM in [8]; 500 nM in experiment [9]; 522 nM in [10]. Further, the Kd came to 551 nM in experiment [11]; 521 nM in [12]; 517 nM in experiment [13]; 556 nM in experiment [14]; 528 nM in experiment [15]; 517 nM in experiment [16].

B2: Strep-tag II-tagged GlnK (stGlnK), Y51F (natural protein, E. coli)
chain: MKLVTVIIKPFKLEDVREALSSIGIQGLTVTEVKGFGRQKGHAELYRGAEFSVNFLPKVKIDVAIADDQLDEVIDIVSKAAYTGKIGDGKIFVAELQRVIRIRTGEADEAAL
notes: GlnK, nitrogen regulatory protein (PII-2), Escherichia coli, with the point mutation Y51F that prevents uridylylation by GlnD; source: E. coli ArcticExpress (DE3) RIL, purified (StrepTrap, Superdex 75)
B2 came in with a Kd in experiment [17] of about 80 nM.
